From ChEMBL document CHEMBL1671711, “Serum and cerebrospinal fluid levels of colistin in pediatric patients” (Antimicrob Agents Chemother, 2010)

Assays:
Klebsiella pneumoniae = assay: Antimicrobial activity against Klebsiella pneumoniae; format: functional, organism-based
Acinetobacter baumannii = assay: Antimicrobial activity against Acinetobacter baumannii; format: functional
[1] = system: Stenotrophomonas maltophilia; assay: Antimicrobial activity against Stenotrophomonas maltophilia; format: functional, organism-based

Measured: MIC

COLISTIN
< 0.5 µg/mL: all assays above
